Like-named read-outs stand apart in the source and are kept apart here.
Assays:
[1] = test system: B16F10 mouse melanoma cells; test: B16F10 IFNγ-induced cellular growth inhibition assay; assay type: cell-based; settings: Mus musculus, B16-F10
Procedure: B16F10 mouse melanoma cells (ATCC Cat ^#CRL-6475, Manassas, Va.) were seeded at a density of 500 cells per well in a 384-well clear bottom plate (Corning Cat^# 3765, Corning, N.Y.) in 25 μL total volume of DMEM+10% FBS (Sigma Cat ^#D6429 and Sigma Cat ^#F4135, St. Louis, Mo.). Cells were allowed to adhere overnight at 37° C.+5% CO2. On the following day, 12.5 μL of mouse IFNγ (RD systems Cat485-MI/CF, Minneapolis, Minn.) was added to half of the plate (columns 13-24) at a concentration of 2 ng/mL for a final assay concentration of 0.5 ng/mL of IFNγ. Media only (12.5 μL of DMEM+10% FBS) was added to the remainder of the plate (columns 1-12). Next, compounds resuspended in DMSO (Sigma Cat ^#D2650) at 100 mM were diluted in semi-log dilutions in DMSO ranging from 100 mM to 0.001 mM and DMSO only controls were included. The compound/DMSO dilutions were further diluted 1:250 in DMEM+10% FBS, and 12.5 μL of these dilutions were added in triplicates to cells of both treatment arms (with and without IFNγ). Final compound concentrations ranged from 100 μM to 0.001 μM with a final DMSO concentration of 0.1%. Compounds were only dosed in the inner 240 wells, avoiding the outer 2-well perimeter of the plate to minimize edge effects. Finally, the plate was loaded into an IncuCyte® S3 Live Cell Analysis System (Essen Bioscience-Sartorius, Ann Arbor, Mich.) maintained in a 37° C.+5% CO2 incubator, allowed to equilibrate for 2 hours, and imaged every 6 hours for 5 days. Confluence over time for compound dilutions in the presence and absence of IFNγ was measured. Growth inhibition values were obtained when the “DMSO/no IFNγ” control reached confluence >95%. At these time points, the percent growth inhibition of each compound at the indicated concentration was calculated relative to the “DMSO/with IFNγ” control.

[2] = biological target: T1, His tagged PTPN2 (TC45) protein (Homo sapiens, UniProt P17706); test: Mobility shift assay (MSA) for potency of PTPN2 inhibitors; assay type: biochemical
T1 construct: made in house
T1 sequence (P17706 with tags, fused parts or gaps isoform P17706-2): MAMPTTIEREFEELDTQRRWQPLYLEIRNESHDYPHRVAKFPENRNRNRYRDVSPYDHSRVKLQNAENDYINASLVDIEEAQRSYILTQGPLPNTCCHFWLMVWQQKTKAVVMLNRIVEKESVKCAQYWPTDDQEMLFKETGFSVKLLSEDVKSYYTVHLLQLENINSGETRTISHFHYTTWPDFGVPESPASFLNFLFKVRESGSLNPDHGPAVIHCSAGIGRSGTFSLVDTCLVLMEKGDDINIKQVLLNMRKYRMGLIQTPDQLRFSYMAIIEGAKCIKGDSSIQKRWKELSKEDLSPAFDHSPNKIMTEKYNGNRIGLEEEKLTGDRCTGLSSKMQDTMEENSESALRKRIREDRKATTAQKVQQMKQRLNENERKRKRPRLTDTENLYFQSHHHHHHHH
Outline: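 His-tagged PTPN2 TC45 (0.5 nM) was preincubated with compound (12-point, 1:3) for 10 min at room temperature in 50 mM HEPES pH 7.5, 1 mM EGTA, 10 mM EDTA, 0.01% Tween 20, 2 mM DTT. OG488-labelled phospho-insulin-receptor peptide ([…]) was then added for 10 min. After quenching, dephosphorylation was measured by microfluidic mobility shift and IC50 derived from % inhibition.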

[3] = +0.5 ng/mL IFNγ, 33 μM compound, relative to DMSO control, read-out: % B16F10 growth inhibition (+0.5 ng/mL IFNγ) @ 33 μM
[4] = no IFNγ, 33 μM compound, read-out: % B16F10 growth inhibition (no IFNγ) @ 33 μM

| SMILES | inhibition at 33 µM [1, 3] [%] | inhibition at 33 µM [1, 4] [%] | IC50 ([2]; read-out: PTPN2 MSA IC50) [nM] | inhibition at 33 µM ([1]; 33 μM, in the presence of IFNγ, read-out: growth inhibition in the presence of IFNγ compared to DMSO controls) [%] | inhibition at 33 µM ([1]; Table 4, +0.5 ng/mL IFNγ, 33 μM, read-out: % B16F10 growth inhibition (+0.5 ng/mL IFNγ) @ 33 μM) [%] | inhibition at 33 µM ([1]; Table 4, no IFNγ, 33 μM, read-out: % B16F10 growth inhibition (no IFNγ) @ 33 μM) [%] | IC50 ([2]; Table 4, read-out: PTPN2 MSA IC50) [nM] | IC50 ([2]; read-out: PTPN2 IC50) [nM] |
| --- | --- | --- | --- | --- | --- | --- | --- | --- |
| O=C1CN(c2c(O)cc3ccc(C4CN(C(=O)C5CC5)C4)cc3c2F)S(=O)(=O)N1 [Compound 207, 5-{7-[1-(cyclopropanecarbonyl)azetidin-3-yl]-1-fluoro-3-hydroxynaphthalen-2-yl}-1λ^6,2,5-thiadiazolidine-1,1,3-trione] | 25 to 59 | < 25 | 1 to 10 |  |  |  |  |  |
| O=C1CN(c2c(O)cc3ccc(C4CNC4)cc3c2F)S(=O)(=O)N1 [Compound 226, 5-[7-(azetidin-3-yl)-1-fluoro-3-hydroxynaphthalen-2-yl]-1λ^6,2,5-thiadiazolidine-1,1,3-trione] | 60 to 90 | < 25 | 1 to 10 |  |  |  |  |  |
| N#C/C=C/c1ccc2cc(O)c(N3CC(=O)NS3(=O)=O)c(F)c2c1 [Compound 208, (2E)-3-[8-fluoro-6-hydroxy-7-(1,1,4-trioxo-1λ^6,2,5-thiadiazolidin-2-yl)naphthalen-2-yl]prop-2-enenitrile] | < 25 | < 25 | 1 to 10 |  |  |  |  |  |
| O=C1CN(c2c(O)cc3ccc(OCCOC4CCC4)cc3c2F)S(=O)(=O)N1 [Compound 214, 5-{7-[2-(cyclobutyloxy)ethoxy]-1-fluoro-3-hydroxynaphthalen-2-yl}-1λ^6,2,5-thiadiazolidine-1,1,3-trione] | 60 to 90 | < 25 | 1 to 10 |  |  |  |  |  |
| N#CC1(CNc2ccc3cc(O)c(N4CC(=O)NS4(=O)=O)c(F)c3c2)CC1 [Compound 181, 1-({[8-fluoro-6-hydroxy-7-(1,1,4-trioxo-1λ^6,2,5-thiadiazolidin-2-yl)naphthalen-2-yl]amino}methyl)cyclopropane-1-carbonitrile] | 60 to 90 | < 25 | 1 to 10 |  |  |  |  |  |
| O=C1CN(c2c(O)cc3ccc(C4CCNCC4)cc3c2F)S(=O)(=O)N1 [Compound 299, 5-[1-fluoro-3-hydroxy-7-(piperidin-4-yl)naphthalen-2-yl]-1λ^6,2,5-thiadiazolidine-1,1,3-trione] | > 90 | < 25 | 1 to 10 |  |  |  |  |  |
| CC(C)C/C=C/c1ccc2cc(O)c(N3CC(=O)NS3(=O)=O)c(F)c2c1 [Compound 240, 5-{1-fluoro-3-hydroxy-7-[(1E)-4-methylpent-1-en-1-yl]naphthalen-2-yl}-1λ^6,2,5-thiadiazolidine-1,1,3-trione] | 25 to 59 | < 25 | 1 to 10 |  |  |  |  |  |
| CCS(=O)(=O)NCCOc1ccc2cc(O)c(N3CC(=O)NS3(=O)=O)c(F)c2c1 [Compound 311, N-(2-{[8-fluoro-6-hydroxy-7-(1,1,4-trioxo-1λ^6,2,5-thiadiazolidin-2-yl)naphthalen-2-yl]oxy}ethyl)ethanesulfonamide] | 60 to 90 | < 25 | < 1 |  |  |  |  |  |
| O=C1CN(c2c(O)cc3ccc(OCCN4CCCCC4)cc3c2F)S(=O)(=O)N1 [Compound 112, 5-{1-fluoro-3-hydroxy-7-[2-(piperidin-1-yl)ethoxy]naphthalen-2-yl}-1λ^6,2,5-thiadiazolidine-1,1,3-trione] | 25 to 59 | < 25 | 10 to 100 |  |  |  |  |  |
| COc1ccc2cc(O)c(N3CC(=O)NS3(=O)=O)cc2c1 [Compound X, reference compound] |  |  |  | < 25 | < 25 | < 25 | 10 to 100 | 69 |
| O=C1CN(c2c(O)cc3ccc(NCCCC(F)(F)F)cc3c2F)S(=O)(=O)N1 [Compound 166, 5-{1-fluoro-3-hydroxy-7-[(4,4,4-trifluorobutyl)amino]naphthalen-2-yl}-1λ^6,2,5-thiadiazolidine-1,1,3-trione] | > 90 | < 25 | 1 to 10 |  |  |  |  |  |
| O=C1CN(c2c(O)cc3ccc4occc4c3c2F)S(=O)(=O)N1 [Compound 104, 5-(9-fluoro-7-hydroxynaphtho[2,1-b]furan-8-yl)-1λ^6,2,5-thiadiazolidine-1,1,3-trione] | 25 to 59 | < 25 | 1 to 10 |  |  |  |  |  |
| O=C1CN(c2c(O)cc3ccc(C4CCS(=O)(=O)CC4)cc3c2F)S(=O)(=O)N1 [Compound 248, 5-[7-(1,1-dioxo-1λ^6-thian-4-yl)-1-fluoro-3-hydroxynaphthalen-2-yl]-1λ^6,2,5-thiadiazolidine-1,1,3-trione] | 60 to 90 | < 25 | 1 to 10 |  |  |  |  |  |
| O=C1CN(c2c(O)cc3ccc(OCCC(F)(F)F)cc3c2F)S(=O)(=O)N1 [Compound 180, 5-[1-fluoro-3-hydroxy-7-(3,3,3-trifluoropropoxy)naphthalen-2-yl]-1λ^6,2,5-thiadiazolidine-1,1,3-trione] | 60 to 90 | < 25 | 1 to 10 |  |  |  |  |  |
| O=C1CN(c2c(O)cc3ccc(NCCC(F)(F)F)cc3c2F)S(=O)(=O)N1 [Compound 169, 5-{1-fluoro-3-hydroxy-7-[(3,3,3-trifluoropropyl)amino]naphthalen-2-yl}-1λ^6,2,5-thiadiazolidine-1,1,3-trione] | > 90 | < 25 | 1 to 10 |  |  |  |  |  |
| CNc1ccc2cc(O)c(N3CC(=O)NS3(=O)=O)c(F)c2c1 [Compound 107, 5-[1-fluoro-3-hydroxy-7-(methylamino)naphthalen-2-yl]-1λ^6,2,5-thiadiazolidine-1,1,3-trione] | 60 to 90 | < 25 | 10 to 100 |  |  |  |  |  |
| CC(C)OCCOc1ccc2cc(O)c(N3CC(=O)NS3(=O)=O)c(F)c2c1 [Compound 215, 5-(1-fluoro-3-hydroxy-7-{2-[(propan-2-yl)oxy]ethoxy}naphthalen-2-yl)-1λ^6,2,5-thiadiazolidine-1,1,3-trione] | 60 to 90 | < 25 | 1 to 10 |  |  |  |  |  |
| COC(C)(C)CCOc1ccc2cc(O)c(N3CC(=O)NS3(=O)=O)c(F)c2c1 [Compound 170, 5-[1-fluoro-3-hydroxy-7-(3-methoxy-3-methylbutoxy)naphthalen-2-yl]-1λ^6,2,5-thiadiazolidine-1,1,3-trione] | 60 to 90 | < 25 | < 1 |  |  |  |  |  |
| N#CCCCOc1ccc2cc(O)c(N3CC(=O)NS3(=O)=O)c(F)c2c1 [Compound 129, 4-{[8-fluoro-6-hydroxy-7-(1,1,4-trioxo-1λ^6,2,5-thiadiazolidin-2-yl)naphthalen-2-yl]oxy}butanenitrile] | > 90 | < 25 | < 1 |  |  |  |  |  |
| O=C1CN(c2c(O)cc3ccc(OCC(F)F)cc3c2F)S(=O)(=O)N1 [Compound 302, 5-[7-(2,2-difluoroethoxy)-1-fluoro-3-hydroxynaphthalen-2-yl]-1λ^6,2,5-thiadiazolidine-1,1,3-trione] | 60 to 90 | < 25 | 1 to 10 |  |  |  |  |  |
| O=C1CN(c2c(O)cc3ccc(OCC4CC(F)(F)C4)cc3c2F)S(=O)(=O)N1 [Compound 235, 5-{7-[(3,3-difluorocyclobutyl)methoxy]-1-fluoro-3-hydroxynaphthalen-2-yl}-1λ^6,2,5-thiadiazolidine-1,1,3-trione] | 60 to 90 | < 25 | 1 to 10 |  |  |  |  |  |
